Experimental data as given in US5466679A, “Carboranyl uridines and their use in boron neutron capture therapy” (The Ohio State University Research Foundation, priority 1994, dated 1995).
“And” between values parts separate entries of the source, which are not always exact repeats. Equal values may be shown once.

Columns and labels:
[1] = tested on: F98 glioma cells; test: Cellular uptake of boron in F98 glioma cells (16 hours incubation, DCP atomic emission spectroscopy); type: cell-based; details: for Boron Conc. /g, 16 hrs incubation: F98 Glioma Cells; for cellular uptake of boron at 16 hours: F98 glioma cells
Procedure: To illustrate the uptake and retention of the various boron-containing compounds as taught hereinabove, there were evaluated 5'-O-(o-carboran-1-ylmethyl)uridine of FIG. 1, and 3-O-(o-carboran-1-ylmethyl)-D-glucose of FIG. 2 in F98 glioma cells. The cellular uptake of boron at 16 hours for the compound of FIG. 1 was 83.8 micrograms of boron per gram of cells. The cellular uptake of boron at 16 hours for the compound of FIG. 2 was 65.2 micrograms of boron per gram of cells. […] This is an unexpected improvement in boron uptake and retention achieved by the present invention, relative to conventional Na2 B12 H11 SH.
(§1) Semiconfluent F98 glioma cells were incubated with the compound for 16 hours and after two washings with serum-free media, the cells were trypsinized, washed twice again and aliquots were analyzed for boron by Direct Current Plasma (DCP) Atomic Emission Spectroscopy. For the boron analyses there was used the following instrumentation and sample preparation for analysis:
(§2) A Spectraspan VB Direct Current Plasma-Atomic Emission Spectrometer, (Model #DCP-AES, Applied Research Laboratories, Brea, Calif.) was used for the boron determinations. This instrument combines a high resolution spectrometer with a high resolution Echelle grating and prism. The plasma source is argon gas heated to a temperature of 6000°-7000° K. The instrument settings used for analysis were: wave length 249.773 nm, argon flow 7L/min sleeve 50 psi, ceramic nebulizer 20 psi, entrance slits […], as predetermined by the manufacturer. The viewing height was […] between the arms of the "V" of the inverted "Y" configuration created by the three electrodes. The liquid uptake rate was approximately 2 mL/min. The operating power, once the plasma was established, was ^~ 40 V in the jet power supply with a 7 amp constant current output. With the operating parameters used no background correction was needed. Integration times and gain had been optimized by the manufacturer and were preset in the computer software. These particular parameters are not user alterable.
(§3) One to 2 mL of concentrated sulfuric acid, which was adequate for up to 1 g of tissue or cells, were added to 150×16 mm Pyrex culture tubes, and these were placed in a mineral oil bath, heated to 100° C. in an exhaust hood and stirred intermittently for one hour. Since no interference with the boron signal was found with the sulfuric acid-hydrogen peroxide cocktail, the amount of sulfuric acid used in digestion was determined by the ease of digestion for a particular sample, rather than by any specific ratio of sample weight to acid volume. The amount and type of tissue were critical factors for successful digestion. If the amount of tissue or cells approached 1 gram or more, there was more chance for overheating and loss of sample by bubbling. If sample size was small (<200 mg) there was more flexibility in terms of acid volume and digestion time.

[2] = tested on: F98 glioma cells; test: Persistence (retention) of boron in F98 glioma cells; type: cell-based
Procedure: as §1, §2, §3
The results for cellular uptake and retention (i.e. persistence studies) for certain compounds of this invention compared to the clinically-used Na2 B12 H11 SH compound are shown in the following TABLE 1.

[3] = Incubating Media […], + approximates the blank value for cells

sodium mercaptoundecahydro-closo-dodecaborane [Na2 B12 H11 SH]
Boron Conc. /g, 16 hrs incubation ([1]; Boron Conc. in Incubating Media 14.6 µg/ml): 4.3 g⁻¹
Boron Conc. /g, 16 hrs incubation ([1]; Boron Conc. in Incubating Media 58.0 µg/ml): 7.2 g⁻¹
Boron Conc. /g, 16 hrs incubation ([1]; Boron Conc. in Incubating Media 116.0 µg/ml): 26.7 g⁻¹
cellular uptake of boron at 16 hours [1]: about 2.0 micrograms of boron per gram of cells
Persistence Studies, 12 hrs, B/g [2, 3]: 3.1 B/g and 2.8 B/g and 3.4 B/g
Persistence Studies, 24 hrs, B/g [2, 3]: .4 B/g and .8 B/g and 1.8 B/g
time to attain background levels (rapidly removed) ([2]; F98 glioma cells): 6 to 12 h

3-O-(o-Carborany-1-ylmethyl)-D-glucose [FIG. 2]
cellular uptake of boron at 16 hours [1]: 65.2 micrograms of boron per gram of cells

5'-O-(o-Carboran-1-ylmethyl)uridine [FIG. 1]
Boron Conc. /g, 16 hrs incubation ([1]; Boron Conc. in Incubating Media 13.5 µg/ml): 88.9 g⁻¹
cellular uptake of boron at 16 hours [1]: 83.8 micrograms of boron per gram of cells
Persistence Studies, 12 hrs, B/g ([2]; Incubating Media […]): 23.9 B/g
Persistence Studies, 24 hrs, B/g ([2]; Incubating Media […]): 19.3 B/g
Persistence Studies, 48 hrs, B/g ([2]; 48 hrs, Incubating Media […]): 10.5 B/g
